{"source": "patent US20150315202A1", "about": "“CHLORIN DERIVATIVE USEFUL IN PHOTODYNAMIC THERAPY AND DIAGNOSIS” (RMW CHO GROUP LIMITED, priority 2012, published 2015)", "key": {"lung cancer [1]": {"test_system": "lung cancer", "test": "In vivo studies Example 5: patient, oral chlorin e4 sodium plus laser and LED light", "design": "species or system human", "settings": "three months after one course", "protocol": "(§1) A patient with lung cancer was treated successfully. The treatment consisted of one course of five doses of 62.5-187.5 mg chlorin e4 sodium administered orally over the course of eight days. 24-48 hours after each oral dose of chlorin e4 sodium, the patient was treated with laser and LED light having a wavelength of 660 nm and 760 nm."}, "[2]": {"test_system": "naso pharyngeal carcinoma with metastases in the lymph nodes of the left neck and in the lung", "test": "In vivo studies Example 10: patient, oral chlorin e4 sodium plus laser and LED light", "design": "species or system human", "protocol": "A patient with naso pharyngeal carcinoma with metastases in the lymph nodes of the left neck and in the lung, was treated successfully. The treatment consisted of five courses. For each course, five doses of 62.5-187.5 mg chlorin e4 sodium were administered orally over the course of eight days. 24-48 hours after each oral dose of chlorin e4 sodium, the patient was treated with laser and LED light having a wavelength of 660 nm and 760 nm. Additionally an interstitial light treatment using a fine needle was performed on the left lung to a tumour that was large in size with an optical fibre laser having a wavelength of 660 nm and 760 nm."}, "[3]": {"test": "Absorption spectra of chlorin e4 sodium solutions", "assay_type": "physicochemical", "settings": "all solvents (ethanol, water, water + SDS)", "protocol": "Absorption spectra were recorded using computerized spectrophotometers Hitachi 3400 (Japan) and SF-2000 (Russia). Fluorescence spectra were measured with a computerized spectrofluorimeter Perkin-Elmer MPF-44B. 10 mm wide quartz cuvettes were used for absorption and fluorescence measurements. Fluorescence was detected at a right angle to the excitation beam. The spectral bandwidth of the monochromator was 3 nm. […] The fluorescence quantum yields (ΦF) were determined using as a reference, solutions of TPPS (m-tetrakis(p-sulfonatophenyl)porphine) in ethanol. According to the literature, the most likely fluorescence quantum yield of TPPS in air-saturated water and ethanol is equal to 0.08 (K. Kalyanasundaram and M. Neumann-Spallart, Photophysical and redox properties of water soluble porphyrins in aqueous media, J. Phys. Chem., 1982, 86, 5163-5169; and A. T. Gradyushko, A. N. Sevchenko, K. N. Solovyov and M. P. Tsvirko, Energetics of photophysical processes in chlorophyll-like molecules, Photochem. Photobiol., 1970, 11, 387-400). The fluorescence of the samples was excited by the monochromatic light corresponding to the maximum of the Soret bands: 415 nm for TPPS in ethanol and 413 nm for TPPS in water, and 403 nm for chlorin e4 sodium in water and ethanol. The monochromator bandwidth was 3 nm. The fluorescence quantum yields (ΦF) were calculated using the following equation: […]"}, "[4]": {"test": "Singlet oxygen detection by photosensitized oxygenation of DPIBF", "assay_type": "physicochemical", "settings": "ethanol, red light 660 nm", "description": "The second method of singlet oxygen detection was based on photosensitized oxygenation of the singlet oxygen conjugate 1,3-diphenylisobenzofuran (DPIBF) (Acros Organics, United Kingdom). DPIBF chemically binds to two singlet oxygens (^1O2) (FIG. 3). This method was applied to chlorin e4 sodium solutions in ethanol. The major absorption band of DPIBF is located at 414-415 nm. The molar absorption coefficient in this maximum, εDPIBF, is known to be 23500 M^−1 cm^−1. Tested solutions were irradiated by the monochromatic light from a xenon lamp using the excitation system of the spectrofluorimeter Perkin-Elmer MPF-44B, the spectral width of the monochromator bandwidth corresponding to 5 nm. Radiant power was measured using the calibrated detector ThorLabs PM-100 (Germany). The singlet oxygen quantum yields (ΦΔ) were calculated according to the equation: […]"}, "lung cancer [5]": {"test_system": "lung cancer", "test": "In vivo studies Example 6: patient, oral chlorin e4 sodium plus laser and LED light", "design": "species or system human", "settings": "immediately after the last of three courses", "protocol": "as §1, with “consisted of three courses. For each course, five doses” for “consisted of one course of five doses”, “e4 sodium were administered orally” for “e4 sodium administered orally”"}, "[6]": {"test_system": "lung cancer with metastases in the lymph nodes and sacrum bone", "test": "In vivo studies Example 11: patient, oral chlorin e4 sodium plus laser and LED light", "design": "species or system human", "protocol": "A patient with lung cancer with metastases in the lymph nodes and sacrum bone, was treated successfully. […] The treatment consisted of five courses. For each course, five doses of 62.5-187.5 mg chlorin e4 sodium were administered orally over the course of eight days. 24-48 hours after each oral dose of chlorin e4 sodium, the patient was treated with laser and LED light having a wavelength of 660 nm and 760 nm. Additionally, for two of the treatment courses, an interstitial light treatment using a fine needle was performed on the sacrum bone with an optical fibre laser having a wavelength of 660 nm and 760 nm. Additionally, mesothelium bone growth therapy was administered for the last two treatment courses."}}}
{"smiles": "C=Cc1c(C)c2cc3nc(c(C)c4[nH]c(cc5nc(cc1[nH]2)C(C)=C5CC)c(C)c4C(=O)O)[C@@H](CCC(=O)O)[C@@H]3C", "note": "[chlorin e4 sodium]", "values": [{"measurement": "CT scan finding", "setting": "lung cancer [1]", "result": "tumour breakdown"}, {"measurement": "Response (PET/CT)", "setting": "[2]; five courses, interstitial light on left lung", "result": "very good treatment response"}, {"measurement": "Patient status", "setting": "[2]; one year and five months after starting, two months after completion of treatment", "result": "alive and well"}, {"measurement": "Aggregation state from absorption spectra", "setting": "[3]", "result": "mostly monomeric"}, {"measurement": "Quantum yield of singlet oxygen generation", "setting": "[4]", "result": "0.68±0.05"}, {"measurement": "CT scan finding", "setting": "lung cancer [5]", "result": "complete recovery from lung cancer"}, {"measurement": "Patient status", "setting": "[6]; 10 months after starting, four months after completion of treatment", "result": "alive and well"}, {"measurement": "Response (PET/CT)", "setting": "[6]; five courses, interstitial light on sacrum bone, mesothelium bone growth therapy for last two courses", "result": "complete response"}]}
